This is an account of results in patent US20030162777A1, “Novel N-acylated heterocycles” (Recordati S.A., priority 2001, published 2003).

pKi: −log10 of the molar value.

One may read the inhibition as how much of the control response was suppressed. Low values mean a response near the control, high ones a response far below the control. For orientation: pKi means the Ki on a negative log10 scale, so that one unit is a factor of ten.

Assay [1] concerns the target T1, 5-HT1A receptors (Rattus norvegicus, UniProt P19327).
T1 construct: from tissue; host or cells: whole animal: male Sprague-Dawley rats (post-synaptic 5-HT1A receptors)
T1 sequence (P19327 1-422): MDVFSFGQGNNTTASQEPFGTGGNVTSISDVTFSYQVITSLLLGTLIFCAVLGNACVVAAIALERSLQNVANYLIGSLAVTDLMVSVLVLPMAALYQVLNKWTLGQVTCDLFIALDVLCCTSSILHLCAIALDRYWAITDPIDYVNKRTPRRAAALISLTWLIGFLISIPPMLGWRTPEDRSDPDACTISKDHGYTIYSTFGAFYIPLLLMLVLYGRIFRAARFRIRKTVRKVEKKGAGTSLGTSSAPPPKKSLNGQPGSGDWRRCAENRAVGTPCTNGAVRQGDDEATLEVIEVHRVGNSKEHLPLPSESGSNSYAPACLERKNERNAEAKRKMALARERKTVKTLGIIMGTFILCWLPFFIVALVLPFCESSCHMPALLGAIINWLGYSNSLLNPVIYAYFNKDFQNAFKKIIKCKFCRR
The assay can be described thus: Inhibition of stereotypy (rhythmic forepaw treading) induced by 8-OH-DPAT in rats (post-synaptic antagonism). It counts as in vivo. The following applies: for inhibition at 1 mg/kg / inhibition at 10 mg/kg: rat; for inhibition at 10 mg/kg: 10 mg/kg p.o. The protocol: The inhibitory effect of 5-HT1A-receptor antagonists on stereotyped forepaw treading induced in rats by subcutaneous injection of 8-OH-DPAT was evaluated by the method of Tricklebank (Tricklebanket al., Eur. J. Pharmacol., 117: 15, 1985) with minor modifications as described below.
Male Sprague-Dawley rats [Crl: CD° (SD) BR] weighing 150-175 g from Charles River Italia were used. The animals were housed with free access to food and water and maintained on a forced 12-hour-light/12-hour-dark cycle at 22-24° C. of temperature. On the day of the experiment, the rats were placed singly in clear plastic containers, 10-15 minutes before administration of the vehicle or compounds to be tested. For evaluation of antagonistic activity after oral administration, the compounds were administered 0.5, 1 and 4 hours before induction of stereotypy by 8-OH-DPAT (1 mg/kg subcutaneously). Observation sessions lasted 30 seconds and began 3 minutes after 8-OH-DPAT treatment and were repeated every 3 minutes over a period of 15 minutes.
The appearance of the symptom induced by postsynaptic stimulation of 5-HT1A receptors was noted, and the intensity was scored using an intensity scale in which: 0=absent, 1=equivocal, 2=present and 3=intense. Behavioural scores for treated rats were accumulated throughout the observation time (5 observation periods) and expressed as mean values of 4 rats/dose. Change in mean values of treated animals in comparison with control (vehicle) group, expressed as per-cent inhibition, was used in order to quantify the antagonistic activity.

Assay [2] addresses T2, human 5HT1A-serotonergic receptor (Homo sapiens, UniProt P08908).
T2 construct: expressed in transfected cells; host or cells: HeLa (human cell line), stably transfected; cell membranes used
T2 sequence (P08908 1-422): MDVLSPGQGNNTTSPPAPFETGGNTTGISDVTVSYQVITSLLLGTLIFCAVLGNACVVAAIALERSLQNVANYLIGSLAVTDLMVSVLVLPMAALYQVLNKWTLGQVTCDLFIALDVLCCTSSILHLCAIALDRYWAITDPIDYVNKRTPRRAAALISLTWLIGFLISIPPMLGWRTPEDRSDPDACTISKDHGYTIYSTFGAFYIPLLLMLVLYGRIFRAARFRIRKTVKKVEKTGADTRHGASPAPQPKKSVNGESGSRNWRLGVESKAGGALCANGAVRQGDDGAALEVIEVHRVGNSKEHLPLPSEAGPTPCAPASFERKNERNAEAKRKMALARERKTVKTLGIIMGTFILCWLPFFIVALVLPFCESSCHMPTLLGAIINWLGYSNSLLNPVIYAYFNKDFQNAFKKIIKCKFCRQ
The assay can be described thus: Radioligand binding to recombinant 5-HT1A receptors. The settings on record: [3H]8-OH-DPAT 1 nM, membranes of HeLa cells with human 5-HT1A receptor; Ki from IC50 by Cheng & Prusoff; read-out: Binding affinity for 5HT1A receptors, Ki. The gist of the method: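 Displacement of 1 nM [3H]8-OH-DPAT (30 min, 30 °C, Tris-HCl pH 7.4 with MgCl2 and pargyline) from recombinant human 5-HT1A in transfected HeLa membranes, stopped by filtration. Specific binding defined against 10 μM 5-HT; IC50 by nonlinear fitting, then Ki by Cheng–Prusoff.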

The mark [3] stands for this setting: 0.5 h before 8-OH-DPAT (1 mg/kg s.c.).
Where [4] appears, read: 1 h before 8-OH-DPAT (1 mg/kg s.c.).
The mark [5] stands for this setting: 4 h before 8-OH-DPAT (1 mg/kg s.c.).

For the compound `O=C(C1CCCCC1)N1c2ccccc2CCC1CN1CCN(c2cccc3[nH]ccc23)CC1` (single isomer, unassigned; (-)) [(−)-1, (−)-1-(1-Cyclohexanecarbonyl-1,2,3,4-tetrahydroquinoline-2-ylmethyl)-4-(4-indolyl)piperazine], the “post-synaptic 5-HT1A-receptor antagonist activity (in words)” value in assay [1] (1 mg/kg p.o., rats) was “devoid of activity”. In addition, the inhibition at 1 mg/kg in assay [1] (1 mg/kg p.o., 0.5 h before 8-OH-DPAT (1 mg/kg s.c.)) was found to be 19%; in assay [1] (1 mg/kg p.o., 1 h before 8-OH-DPAT (1 mg/kg s.c.)), 5%; in assay [1] (1 mg/kg p.o., 4 h before 8-OH-DPAT (1 mg/kg s.c.)) it was 9%.
Take `O=C(C1CCCCC1)N1c2ccc(F)cc2CCC1CN1CCN(c2cccc3[nH]ccc23)CC1` (stereo not drawn) [Example 18, 1-(1-Cyclohexanecarbonyl-6-fluoro-1,2,3,4-tetrahydroquinoline-2-ylmethyl)-4-(4-indolyl)piperazine]: the pKi in assay [2] is 8.55. The inhibition at 10 mg/kg in assay [1] (setting [3]) amounted to 98%; in assay [1] (setting [4]), 92%; in assay [1] (setting [5]), 92%.
As for `O=C(C1CC=CCC1)N1c2ccccc2CCC1CN1CCN(c2cccc3[nH]ccc23)CC1` (stereo not drawn) [Example 24A1, 1-(1-Cyclohex-3-enylcarbonyl-1,2,3,4-tetrahydroquinoline-2-ylmethyl)-4-(4-indolyl)piperazine], the pKi in assay [2] is 8.59. Moreover, the inhibition at 10 mg/kg in assay [1] (setting [3]), in assay [1] (setting [4]) and in assay [1] (setting [5]) was 100% each time.
In the case of `O=C(CC1CC1)N1c2ccccc2CCC1CN1CCN(c2cccc3c2OCCO3)CC1` (stereo not drawn) [Example 76A1, 4-[1-(2-Cyclopropylacetyl)-1,2,3,4-tetrahydroquinolin-2-ylmethyl]-1-(2,3-dihydrobenzo[1,4]dioxin-5-yl)piperazine], in assay [2], the pKi is 8.27.
On the same count and under the same terms, for `O=C(c1ccc[nH]1)N1c2ccccc2CCC1CN1CCN(c2cccc3c2OCCO3)CC1` (stereo not drawn) [Example 76A2, 1-(2,3-Dihydrobenzo[1,4]dioxin-5-yl)-4-[1-(2-pyrrolylcarbonyl)-1,2,3,4-tetrahydroquinolin-2-ylmethyl]piperazine] the value was 8.29; for `O=C(c1ccco1)N1c2ccccc2CCC1CN1CCN(c2cccc3c2OCCO3)CC1` (stereo not drawn) [Example 76A3, 1-(2,3-Dihydrobenzo[1,4]dioxin-5-yl)-4-[1-(2-furanecarbonyl)-1,2,3,4-tetrahydroquinolin-2-ylmethyl]piperazine], 8.30.
Still for that read-out and setting: in the case of `COc1ccc(C(=O)N2c3ccccc3CCC2CN2CCN(c3cccc4c3OCCO4)CC2)cc1` (stereo not drawn) [Example 76A4, 1-(2,3-Dihydrobenzo[1,4]dioxin-5-yl)-4-[1-(4-methoxybenzoyl)-1,2,3,4-tetrahydroquinolin-2-ylmethyl]piperazine] it was 8.41; in that of `N#Cc1ccc(C(=O)N2c3ccccc3CCC2CN2CCN(c3cccc4c3OCCO4)CC2)cc1` (stereo not drawn) [Example 76A5, 1-[1-(4-Cyanobenzoyl)-1,2,3,4-tetrahydroquinolin-2-ylmethyl]-4-(2,3-dihydrobenzo[1,4]dioxin-5-yl)piperazine], 7.91; in that of `O=C(Cc1cccs1)N1c2ccccc2CCC1CN1CCN(c2cccc3c2OCCO3)CC1` (stereo not drawn) [Example 76A6, 1-(2,3-Dihydrobenzo[1,4]dioxin-5-yl)-4-[1-[2-(2-thienyl)acetyl]-1,2,3,4-tetrahydroquinolin-2-ylmethyl]piperazine], 8.26.
Still for that read-out and setting: in the case of `O=C(Cc1ccsc1)N1c2ccccc2CCC1CN1CCN(c2cccc3c2OCCO3)CC1` (stereo not drawn) [Example 76A7, 1-(2,3-Dihydrobenzo[1,4]dioxin-5-yl)-4-[1-[2-(3-thienyl)acetyl]-1,2,3,4-tetrahydroquinolin-2-ylmethyl]piperazine] it was 8.07; in that of `O=C(C1CCC1)N1c2ccccc2CCC1CN1CCN(c2cccc3c2OCCO3)CC1` (stereo not drawn) [Example 76A8], 7.72.
`O=S(=O)(c1ccccc1)N1c2ccccc2CCC1CN1CCN(c2cccc3c2OCCO3)CC1` (stereo not drawn) [Example 76A10, 1-(1-Benzenesulphonyl-1,2,3,4-tetrahydroquinolin-2-ylmethyl)-4-(2,3-dihydrobenzo[1,4]dioxin-5-yl)piperazine]: in assay [2], the negative logarithm of the Ki (pKi) was 7.67.
On the same count and under the same terms, for `O=S(=O)(Cc1ccccc1)N1c2ccccc2CCC1CN1CCN(c2cccc3c2OCCO3)CC1` (stereo not drawn) [Example 76A11, 1-(2,3-Dihydrobenzo[1,4]dioxin-5-yl)-4-(1-phenylmethanesulphonyl-1,2,3,4-tetrahydroquinolin-2-ylmethyl)piperazine] the value was 8.35.
On the same count and under the same terms, in the case of `Cc1ccccc1NC(=O)N1c2ccccc2CCC1CN1CCN(c2cccc3c2OCCO3)CC1` (stereo not drawn) [Example 76A12, 1-(2,3-Dihydrobenzo[1,4]dioxin-5-yl)-4-[1-(2-methylphenylaminocarbonyl)-1,2,3,4-tetrahydroquinolin-2-ylmethyl]piperazine] it was 8.10.
In the case of `CC(C)(C)NC(=O)N1c2ccccc2CCC1CN1CCN(c2cccc3c2OCCO3)CC1` (stereo not drawn) [Example 76A13, 1-(2,3-Dihydrobenzo[1,4]dioxin-5-yl)-4-[1-(1,1-dimethylethylaminocarbonyl)-1,2,3,4-tetrahydroquinolin-2-ylmethyl]piperazine], the pKi in assay [2] was 8.64.
With `CC(=O)N1CCC(C(=O)N2c3ccccc3CCC2CN2CCN(c3cccc4c3OCCO4)CC2)CC1` (stereo not drawn) [Example 76A15, 1-[1-(1-acetyl-4-piperidinecarbonyl)-1,2,3,4-tetrahydroquinolin-2-ylmethyl]-4-(2,3-dihydrobenzo[1,4]dioxin-5-yl)piperazine], the pKi in assay [2] was 8.09.
Same read-out and setting: in the case of `COc1ccccc1OCCN(C)CC1CCc2ccccc2N1C(=O)CC(C)(C)C` (stereo not drawn) [Example 77A1, N-[1-(3,3-Dimethylbutanoyl)-1,2,3,4-tetrahydroquinolin-2-ylmethyl]-N-[2-(2-methoxyphenoxy)ethyl]methylamine] it was 7.62.
For the compound `COc1ccc(C(=O)N2c3ccccc3CCC2CN(C)CCOc2ccccc2OC)cc1` (stereo not drawn) [Example 77A5, N-[1-(4-Methoxybenzoyl)-1,2,3,4-tetrahydroquinolin-2-ylmethyl]-N-[2-(2-methoxyphenoxy)ethyl]methylamine], the pKi in assay [2] was 7.88.
The same measure, in the same setting: in the case of `O=C(C1CCCCC1)N1c2ccccc2CCC1CN1CCN(c2ccccc2OS(=O)(=O)C(F)(F)F)CC1` (stereo not drawn) [Example 79, 1-(1-Cyclohexanecarbonyl-1,2,3,4-tetrahydroquinoline-2-ylmethyl)-4-(2-triluoromethanesulphonyloxyphenyl)piperazine] it was 8.35; in that of `COc1cc(F)ccc1N1CCN(CC2CCc3cc(N)ccc3N2C(=O)C2CCCCC2)CC1` (stereo not drawn) [Example 85, 1-(6-Amino-1-cyclohexanecarbonyl-1,2,3,4-tetrahydroquinoline-2-ylmethyl)-4-(4-fluoro-2-methoxyphenyl)piperazine], 7.39; in that of `COc1cc(C)ccc1N1CCN(CC2CCc3ccccc3N2C(=O)C2CCCCC2)CC1` (stereo not drawn) [Example 86A, 1-(1-Cyclohexanecarbonyl-1,2,3,4-tetrahydroquinoline-2-ylmethyl)-4-(2-methoxy-4-methylphenyl)piperazine], 7.74.
